In patent US7135303B2, “Regulators of type-1 tumor necrosis factor receptor and other cytokine receptor shedding” (The United States of America as represented by the …, priority 2000, dated 2006):

Biological target: T1, recombinant GST-ARTS-1 fusion protein (Homo sapiens, UniProt Q9NZ08)
T1 construct: ARTS-1 extracellular domain (i.e., the ectodomain; amino acids 30–941) was PCR amplified; made in house
Assay: ARTS-1 aminopeptidase activity assay (amide bond hydrolysis of amino acid p-nitroanilide substrates, absorbance at 380 nm)
Format: biochemical
Details: for Vmax: aa-pNA substrate 0.25 to 8 mM, 24 pmoles GST-ARTS-1, 50 mM Tris pH 7.5, room temperature, 1 hour; for Vmax / Km: Lineweaver-Burk; for kcat / Km: aa-pNA substrate with GST-ARTS-1; for aminopeptidase activity of recombinant GST-ARTS-1 against the amino acid substrate: acidic or basic amino acid p-nitroanilide substrates
Description: To accomplish this, commercially available amino acid p-nitroanilide substrates were incubated with purified GST-ARTS-1 fusion protein for 1 hour under conditions of linear enzyme activity over time. The rate of amide bond hydrolysis was determined by measuring the absorbance of the p-nitroaniline aminopeptidase reaction product at 380 nm. Each experimental point was run in triplicate and each determination utilized six concentrations of amino acid p-nitroanilide substrate. Kinetic constants were determined by Lineweaver-Burk analysis. Correlation coefficients for each line generated were greater than 0.997. Each amino acid p-nitroaniline substrate tested is shown in the left colurnr, along with its polar/non-polar/acidic/basic nature. Vmax is a measure of the theoretical enzyme maximal velocity, Km is the Michaelis-Menten constant for each ARTS-1/substrate combination, kcat is the first order rate constant (i.e., the turnover number) for the ARTS-1/substrate combination, and kcat/Km is the second order rate constant for the ARTS-1/substrate combination (i.e., a measure of overall catalytic efficiency).
Aminopeptidase activity of the recombinant GST-ARTS-1 fusion protein was assessed by determination of the rate of amide bond hydrolysis of amino acid p-nitroanilide substrates (Bachem). Amino acid p-nitroanilides (final concentrations 0.25 to 8 mM) were incubated at room temperature with 24 pmoles of GST-ARTS-1 fusion protein in 200 μl of 50 mM Tris, pH 7.5 for 1 hour. Reactions were terminated by addition of 280 μl of 3M sodium acetate (pH 5.2). The rate of amide bond hydrolysis was determined by measuring the absorbance of p-nitroaniline at 380 nm (See, Table 3, supra). Spontaneous hydrolysis of the substrate was corrected for by subtracting the absorbance of control incubations which were terminated immediately. Kinetic constants were determined by Lineweaver-Burk analysis. Each experimental point was assayed in triplicate and each determination utilized six concentrations of each amino acid p-nitroanilide substrate. Correlation coefficients for each line generated were greater than 0.997.

T1 sequence (Q9NZ08 30-941): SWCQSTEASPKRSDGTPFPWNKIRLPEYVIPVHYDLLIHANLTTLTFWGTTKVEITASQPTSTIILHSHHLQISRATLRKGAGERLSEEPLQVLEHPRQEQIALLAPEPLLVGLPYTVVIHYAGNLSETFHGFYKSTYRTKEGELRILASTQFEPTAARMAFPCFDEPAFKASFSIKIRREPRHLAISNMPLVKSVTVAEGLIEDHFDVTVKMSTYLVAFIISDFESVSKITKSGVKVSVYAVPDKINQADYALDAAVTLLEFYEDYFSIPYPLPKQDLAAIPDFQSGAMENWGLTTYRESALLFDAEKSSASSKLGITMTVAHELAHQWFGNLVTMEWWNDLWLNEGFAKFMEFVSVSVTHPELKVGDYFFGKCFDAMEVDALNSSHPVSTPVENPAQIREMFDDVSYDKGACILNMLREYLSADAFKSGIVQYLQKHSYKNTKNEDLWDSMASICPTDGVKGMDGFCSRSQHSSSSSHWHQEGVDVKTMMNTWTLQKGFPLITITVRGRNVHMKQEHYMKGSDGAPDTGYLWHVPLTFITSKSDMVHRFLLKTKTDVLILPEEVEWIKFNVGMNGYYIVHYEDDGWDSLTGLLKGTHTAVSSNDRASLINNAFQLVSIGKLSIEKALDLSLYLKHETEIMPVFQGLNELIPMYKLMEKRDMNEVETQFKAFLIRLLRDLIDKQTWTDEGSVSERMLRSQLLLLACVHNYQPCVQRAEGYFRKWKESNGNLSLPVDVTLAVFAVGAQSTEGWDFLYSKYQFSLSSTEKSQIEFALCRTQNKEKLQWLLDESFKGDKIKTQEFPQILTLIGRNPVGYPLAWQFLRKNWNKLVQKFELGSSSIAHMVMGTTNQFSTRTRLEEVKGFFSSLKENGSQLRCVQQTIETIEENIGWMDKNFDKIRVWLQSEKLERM

Row | SMILES | Vmax | kcat | Km [mM] | aminopeptidase activity of recombinant GST-ARTS-1 against the amino acid substrate
1 | N[C@@H](CS)C(=O)Nc1ccc([N+](=O)[O-])cc1 [Cys] | 8.95 ± 0.31 pmol/pmol/min | 14.92 ± 0.52 s^−1 × 10^−2 | 4.57 ± 0.2 | –
2 | N[C@@H](Cc1cnc[nH]1)C(=O)Nc1ccc([N+](=O)[O-])cc1 [His] | No Activity | No Activity | – | no activity
3 | N=C(N)NCCC[C@H](N)C(=O)Nc1ccc([N+](=O)[O-])cc1 [Arg] | No Activity | No Activity | – | no activity
4 | N[C@@H](CC(=O)O)C(=O)Nc1ccc([N+](=O)[O-])cc1 [Asp] | No Activity | No Activity | – | no activity
5 | N[C@@H](Cc1ccccc1)C(=O)Nc1ccc([N+](=O)[O-])cc1 [Phe, phenylalanine p-nitroanilide] | 5.14 ± 0.04 pmol/pmol/min | – | – | –
6 | CSCC[C@H](N)C(=O)Nc1ccc([N+](=O)[O-])cc1 [Met] | 13.36 ± 0.75 pmol/pmol/min | 22.27 ± 1.25 s^−1 × 10^−2 | 7.71 ± 0.43 | –
7 | CC(C)C[C@H](N)C(=O)Nc1ccc([N+](=O)[O-])cc1 [Leu] | 9.45 ± 0.43 pmol/pmol/min | 15.75 ± 0.72 s^−1 × 10^−2 | 5.26 ± 0.25 | –

The remaining lines, values ahead:

Row | Vmax | kcat | Km [mM] | aminopeptidase activity of recombinant GST-ARTS-1 against the amino acid substrate | SMILES
8 | 5.31 ± 0.31 pmol/pmol/min | 8.85 ± 0.52 s^−1 × 10^−2 | 5.69 ± 0.26 | – | CC(C)[C@H](N)C(=O)Nc1ccc([N+](=O)[O-])cc1 [Val]
9 | 26.18 ± 0.24 pmol/pmol/min | 43.63 ± 0.40 s^−1 × 10^−2 | 16.8 ± 0.18 | – | C[C@H](N)C(=O)Nc1ccc([N+](=O)[O-])cc1 [Ala]
10 | 5.29 ± 0.08 pmol/pmol/min | 8.82 ± 0.13 s^−1 × 10^−2 | 4.68 ± 0.06 | – | O=C(Nc1ccc([N+](=O)[O-])cc1)[C@@H]1CCCN1 [Pro]
11 | 5.81 ± 0.87 pmol/pmol/min | – | – | – | CC[C@H](C)[C@H](N)C(=O)Nc1ccc([N+](=O)[O-])cc1 [Ile, isoleucine p-nitroanilide]
12 | No Activity | No Activity | – | no activity | NCCCC[C@H](N)C(=O)Nc1ccc([N+](=O)[O-])cc1 [Lys]
13 | 8.67 ± 0.05 pmol/pmol/min | – | – | – | NCC(=O)Nc1ccc([N+](=O)[O-])cc1 [Gly, glycine p-nitroanilide]
14 | No Activity | No Activity | – | no activity | N[C@@H](CCC(=O)O)C(=O)Nc1ccc([N+](=O)[O-])cc1 [Glu]
